Reference: patent US20060069132A1, “Azolecarboxamide herbicides” (priority 2004, published 2006)

Columns and labels:
Experiment in all cases: Test C pre-/postemergence herbicide test
woolly cupgrass = type: in vivo, Eriochloa villosa; conditions: for Cupgrass, Woolly plant response rating: 500 g ai/ha
In short: (§1)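 Pre- and postemergence application, solvent/surfactant formulation; post at 1- to 4-leaf stage (2–18 cm). Greenhouse 12–14 d. Visual rating vs controls, 0 = no effect, 100 = complete control.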

eastern black nightshade = type: in vivo, Solanum ptycanthum; conditions: for Plant response rating (0 = no effect, 100 = complete control), Nightshade: 62 g ai/ha; for Plant response rating (0 = no effect, 100 = complete control), Nightshade / Plant response rating, Nightshade: preemergence; for Nightshade plant response rating: Preemergence, 500 g ai/ha, scale 0 to 100, 0 no effect, 100 complete control
Excerpt: Seeds of plant species selected from bermudagrass (Cynodon dactylon (L.) Pers.), Surinam grass (Urochloa decumbens (Staph) R. D. Webster, previously named Brachiaria decumbens Stapf), cocklebur (Xanthium strumarium L.), corn (Zea mays L.), large crabgrass (Digitaria sanguinalis (L.) Scop.), woolly cupgrass (Eriochloa villosa (Thunb.) Kunth), giant foxtail (Setaria faberi Herrm.), goosegrass (Eleusine indica (L.) Gaertn.), johnsongrass (Sorghum halepense (L.) Pers.), kochia (Kochia scoparia (L.) Schrad.), lambsquarters (Chenopodium album L.), morningglory (Ipomoea coccinea L.), eastern black nightshade (Solanum ptycanthum Dunal), yellow nutsedge (Cyperus esculentus L.), pigweed (Amaranthus retroflexus L.), common ragweed (Ambrosia elatior L.), soybean (Glycine max (L.) Merr.), common (oilseed) sunflower (Helianthus annuus L.) and velvetleaf (Abutilon theophrasti Medik.) were planted and treated preemergence with test chemicals formulated in a non-phytotoxic solvent mixture which included a surfactant.
At the same time, plants selected from these crop and weed species and also winter barley (Hordeum vulgare L.), blackgrass (Alopecurus myosuroides Huds.), canarygrass (Phalaris minor Retz.), chickweed (Stellaria media (L.) Vill.), downy bromegrass (Bromus tectorum L.), green foxtail (Setaria viridis (L.) Beauv.), Italian ryegrass (Lolium multiflorum Lam.), wheat (Triticum aestivum L.), wild oat (Avenafatua L.) and windgrass (Apera spica-venti (L.) Beauv.) were treated with postemergence applications of some of the test chemicals formulated in the same manner. Plants ranged in height from 2 to 18 cm (1- to 4-leaf stage) for postemergence treatments. Plant species in the flooded paddy test consisted of rice (Oryza sativa), smallflower umbrella sedge (Cyperus difformis L.), ducksalad (Heteranthera limosa (Sw.) Willd.) and barnyardgrass (Echinochloa crus-galli (L.) Beauv.) grown to the 2-leaf stage for testing. Treated plants and controls were maintained in a greenhouse for 12 to 14 days, after which time all species were compared to controls and visually evaluated. Plant response ratings, summarized in Table C, are based on a scale of 0 to 100 where 0 is no effect and 100 is complete control. A dash (-) response means no test result.

large crabgrass = type: in vivo, Digitaria sanguinalis; conditions: for Crabgrass, Large plant response rating: 500 g ai/ha
In short: as §1

[1] = 125 g ai/ha, scale 0-100, preemergence
[2] = 250 g ai/ha, scale 0 to 100 (0 no effect, 100 complete control), visual, 12 to 14 days, preemergence
[3] = Postemergence, 125 g ai/ha, scale 0 to 100, 0 no effect, 100 complete control
[4] = Postemergence, 250 g ai/ha, scale 0 to 100, 0 no effect, 100 complete control
[5] = Preemergence, scale 0 to 100, 0 no effect, 100 complete control
[6] = postemergence, 62 g ai/ha, scale 0 to 100
[7] = 250 g ai/ha, scale 0 to 100 (0 no effect, 100 complete control), visual, 12 to 14 days
[8] = 31 g ai/ha, preemergence, scale 0 to 100
[9] = 125 g ai/ha, scale 0 (no effect) to 100 (complete control), visual, 12 to 14 days, preemergence
[10] = 125 g ai/ha, scale 0 (no effect) to 100 (complete control), visual, 12 to 14 days

In the case of `CCNC(=O)c1cccc(NC(=O)c2cc(C(C)(C)C)nn2CC(F)(F)F)c1` [Compound 31], the “Plant response rating (0 = no effect, 100 = complete control), Cupgrass, Woolly” value (woolly cupgrass; 62 g ai/ha, preemergence) is reported as 0, the “Plant response rating, Cupgrass, Woolly” value (woolly cupgrass; [1]) is reported as 0 and the “Plant response rating, Cupgrass, Woolly” value (woolly cupgrass; [2]) is reported as 30. The “Cupgrass, Woolly plant response rating” value (woolly cupgrass; Postemergence, scale 0 to 100) was 60, the “Plant response rating, Cupgrass, Woolly” value (woolly cupgrass; [3]) was 30 and the “Plant response rating, Cupgrass, Woolly” value (woolly cupgrass; [4]) was 40. The “Cupgrass, Woolly plant response rating” value (woolly cupgrass; [5]) was 60, the “Plant response rating, Cupgrass, Woolly” value (woolly cupgrass; [6]) was 30 and the “Plant response rating (0 = no effect, 100 = complete control), Nightshade” value (eastern black nightshade) was 90. For the same compound, the “Plant response rating, Nightshade” value (eastern black nightshade; [7]) was 100, the “Nightshade plant response rating” value (eastern black nightshade) was 100 and the “Plant response rating (0 = no effect, 100 = complete control), Crabgrass, Large” value (large crabgrass; 62 g ai/ha, preemergence) was 90. For the same compound, the “Plant response rating, Crabgrass, Large” value (large crabgrass; [1]) was 100, the “Plant response rating, Crabgrass, Large” value (large crabgrass; [2]) was 100 and the “Crabgrass, Large plant response rating” value (large crabgrass; Postemergence, scale 0 to 100) was 70. The “Plant response rating, Crabgrass, Large” value (large crabgrass; [3]) was 60, the “Plant response rating, Crabgrass, Large” value (large crabgrass; [4]) was 60 and the “Crabgrass, Large plant response rating” value (large crabgrass; [5]) was 100. For the same compound, the “Plant response rating, Crabgrass, Large” value (large crabgrass; [6]) was 50.

For `C=Cn1nc(C(C)(C)C)cc1C(=O)Nc1cccc(C(=O)N(CC)CC)c1` [Compound 34], the “Plant response rating (0 = no effect, 100 = complete control), Cupgrass, Woolly” value (woolly cupgrass; 62 g ai/ha, preemergence) was 10, the “Plant response rating, Cupgrass, Woolly” value (woolly cupgrass; [1]) was 20 and the “Plant response rating, Cupgrass, Woolly” value (woolly cupgrass; [2]) was 70. For the same compound, the “Cupgrass, Woolly plant response rating” value (woolly cupgrass; Postemergence, scale 0 to 100) was 90, the “Plant response rating, Cupgrass, Woolly” value (woolly cupgrass; [3]) was 60 and the “Plant response rating, Cupgrass, Woolly” value (woolly cupgrass; [4]) was 80. The “Cupgrass, Woolly plant response rating” value (woolly cupgrass; [5]) was 70, the “Plant response rating, Cupgrass, Woolly” value (woolly cupgrass; [6]) was 40 and the “Plant response rating (0 = no effect, 100 = complete control), Nightshade” value (eastern black nightshade) was 10. For the same compound, the “Plant response rating, Nightshade” value (eastern black nightshade; [7]) was 90, the “Nightshade plant response rating” value (eastern black nightshade) was 100 and the “Plant response rating (0 = no effect, 100 = complete control), Crabgrass, Large” value (large crabgrass; 62 g ai/ha, preemergence) was 80. For the same compound, the “Plant response rating, Crabgrass, Large” value (large crabgrass; [1]) was 100, the “Plant response rating, Crabgrass, Large” value (large crabgrass; [2]) was 100 and the “Crabgrass, Large plant response rating” value (large crabgrass; Postemergence, scale 0 to 100) was 60. The “Plant response rating, Crabgrass, Large” value (large crabgrass; [3]) was 40, the “Plant response rating, Crabgrass, Large” value (large crabgrass; [4]) was 60 and the “Crabgrass, Large plant response rating” value (large crabgrass; [5]) was 100. The “Plant response rating, Crabgrass, Large” value (large crabgrass; [6]) was 20.

With `CCNC(=O)c1cccc(NC(=O)c2cc(C(C)(C)C)nn2CCF)c1` [Compound 35] the “Plant response rating, Cupgrass, Woolly” value (woolly cupgrass; [8]) was 10, the “Plant response rating (0 = no effect, 100 = complete control), Cupgrass, Woolly” value (woolly cupgrass; 62 g ai/ha, preemergence) was 10 and the “Plant response rating, Cupgrass, Woolly” value (woolly cupgrass; [9]) was 20. The “Plant response rating, Cupgrass, Woolly” value (woolly cupgrass; [3]) was 60, the “Plant response rating, Cupgrass, Woolly” value (woolly cupgrass; [6]) was 40 and the “Plant response rating, Nightshade” value (eastern black nightshade; 31 g ai/ha, scale 0 to 100) was 70. The “Plant response rating, Nightshade” value (eastern black nightshade; [10]) was 90, the “Plant response rating, Crabgrass, Large” value (large crabgrass; [8]) was 0 and the “Plant response rating (0 = no effect, 100 = complete control), Crabgrass, Large” value (large crabgrass; 62 g ai/ha, preemergence) was 10. For the same compound, the “Plant response rating, Crabgrass, Large” value (large crabgrass; [9]) was 50, the “Plant response rating, Crabgrass, Large” value (large crabgrass; [3]) was 40 and the “Plant response rating, Crabgrass, Large” value (large crabgrass; [6]) was 40.

With `CCn1nc(C(C)(C)C)cc1C(=O)Nc1cccc(C(=O)NC2CC2)c1` [Compound 44] the “Plant response rating (0 = no effect, 100 = complete control), Cupgrass, Woolly” value (woolly cupgrass; 62 g ai/ha, preemergence) was 0, the “Plant response rating, Cupgrass, Woolly” value (woolly cupgrass; [9]) was 10 and the “Plant response rating, Cupgrass, Woolly” value (woolly cupgrass; [2]) was 10. For the same compound, the “Plant response rating, Cupgrass, Woolly” value (woolly cupgrass; [3]) was 60, the “Plant response rating, Cupgrass, Woolly” value (woolly cupgrass; [4]) was 60 and the “Plant response rating, Cupgrass, Woolly” value (woolly cupgrass; [6]) was 50. The “Plant response rating (0 = no effect, 100 = complete control), Nightshade” value (eastern black nightshade) was 80, the “Plant response rating, Nightshade” value (eastern black nightshade; [10]) was 90 and the “Plant response rating, Nightshade” value (eastern black nightshade; [7]) was 100. For the same compound, the “Plant response rating (0 = no effect, 100 = complete control), Crabgrass, Large” value (large crabgrass; 62 g ai/ha, preemergence) was 0, the “Plant response rating, Crabgrass, Large” value (large crabgrass; [9]) was 20 and the “Plant response rating, Crabgrass, Large” value (large crabgrass; [2]) was 20. The “Plant response rating, Crabgrass, Large” value (large crabgrass; [3]) was 90, the “Plant response rating, Crabgrass, Large” value (large crabgrass; [4]) was 90 and the “Plant response rating, Crabgrass, Large” value (large crabgrass; [6]) was 60.
